The record followed here is patent US8178699B2, “Modulators of CCR9 receptor and methods of use thereof” (Pfizer Inc., priority 2008, dated 2012).

Where a name gives a salt, the structure may show the parent alone.

The assay addresses T1, human CCR9 receptor (Homo sapiens, UniProt P51686).
T1 construct: expressed in transfected cells
T1 sequence (P51686 1-369): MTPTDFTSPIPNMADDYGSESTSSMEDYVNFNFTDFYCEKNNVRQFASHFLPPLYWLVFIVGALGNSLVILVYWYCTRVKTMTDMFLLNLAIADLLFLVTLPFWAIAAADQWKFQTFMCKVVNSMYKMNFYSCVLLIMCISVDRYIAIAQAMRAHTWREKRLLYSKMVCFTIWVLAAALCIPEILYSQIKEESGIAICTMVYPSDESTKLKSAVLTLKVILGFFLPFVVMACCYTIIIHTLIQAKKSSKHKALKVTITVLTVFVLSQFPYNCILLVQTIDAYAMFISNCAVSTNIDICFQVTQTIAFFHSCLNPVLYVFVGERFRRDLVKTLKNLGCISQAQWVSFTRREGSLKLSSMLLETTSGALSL
The assay is described as follows: CCR9 FLIPR/FlexStation Assay (inhibition of TECK induced calcium mobilization). The settings on record: CCR9 antagonist activity; TECK induced calcium mobilization in CCR9-Flp-CHO cells stably over expressing human CCR9; rhTECK at EC70; read-out: Binding IC50. Type of assay: cell-based. From the text: Exemplary methods are described in US Publication Nos. US2004/0180892 and US2005/0049286, which are incorporated herein by reference. An exemplary assay for determining CCR9 antagonist activity of the compounds provided herein is CCR9 FLIPR/FlexStation Assay. In certain embodiments, the following protocol is used for the assay:
CCR9 FLIPR/FlexStation Assay Protocol
Calcium assay in FLIPR/FlexStation determines inhibitors of TECK induced calcium mobilization in CCR9-Flp-CHO cells that stably over express human CCR9 receptor. CCR9-Flp-CHO cells are seeded at 25,000 cells/well in a clear bottom, black wall 96-well plate (Greiner #655090) one day prior to assay. Cells are grown in a tissue culture incubator at 37° C. with 5% CO2 for 18 to 24 hours.
Wash buffer and dye loading buffer are prepared fresh each time the assay is performed. Wash buffer is prepared according to the following protocol: 20 ml 10×HBSS (Invitrogen Gibco #14065-056), 4 ml 1M HEPES (Sigma H3784), 174 ml sterile deionized water; then add 140 mg probenecid (Sigma P8761) dissolved in 2 ml 1M NaOH (Fisher S318) to solution and pH to 7.4. This wash buffer contains 1×HBSS, 20 mM HEPES and 2.5 mM probenecid. For one 96-well plate, dye loading buffer is prepared as following: 11 ml wash buffer, 44 μl Fluo-4/pluoronic acid mix (prepared from 22 μL aliquot of 2 mM Fluo-4 (Molecular Probes F14202, 1 mg/tube)+22 μl 20% pluronic F-127 (Molecular Probes P3000MP).
Cells are loaded with dye according to the protocol below:
1. Prepare wash buffer with 1×HBSS/HEPES at room temperature
2. Prepare loading buffer (keep in dark)
3. Aspirate culture media and wash with 100 μl wash buffer per well×1
4. Add 100 μl dye loading buffer to each well
5. Incubate at 37° C. for 30 minutes
6. Aspirate loading buffer
7. Wash with 100 μl wash buffer per well×3
8. Add 100 μl wash buffer per well
9. Incubate at 37° C. for 30 minutes
10. Assay plate with FLIPR or FlexStation
10 mM stock compounds in DMSO are prepared and diluted in DMSO to 1 mM. Compounds are diluted in wash buffer to make 8 point series dilutions containing same final concentration of DMSO (1%). Compounds are tested in duplicate wells for each point. Ligand rhTECK (R&D Systems 334-TK) was diluted to 6× of its EC70 with wash buffer. Appropriate amount of 6× ligand is added to each well. Data is analyzed using XLfit3 software to calculate IC50 value of antagonist activity for each compound.
CCR9 antagonist activity of exemplary compounds was determined using CCR9 FLIPR/FlexStation Assay as described in Section 4.4 and is provided in Table 1 below. The IC50 for the compounds are represented as follows: A≦100 nM; B>100-500 nM; C>500 nM.
Background: A change in cytosolic calcium serves as a functional read-out for many receptors and channels.
As usually defined, the IC50 is the midpoint of a concentration-inhibition curve. As for `COCCCc1cc(C(C)(C)C)ccc1S(=O)(=O)Nc1ccsc1C(=O)O` [Example 59, 3-[4-tert-butyl-2-(3-methoxypropyl)phenylsulfonamido]thiophene-2-carboxylic acid, disodium salt], the IC50 was in the range of 0.1 to 0.5 µM. The figure for `CC(C)(C)c1ccc(S(=O)(=O)Nc2ccsc2C(=O)O)c(-c2ccoc2)c1` [Example 60, 3-[4-tert-butyl-2-(furan-3-yl)-phenylsulfonamido]thiophene-2-carboxylic acid, disodium salt] is 0.1 to 0.5 µM. For `C=Cc1cc(C(C)(C)C)ccc1S(=O)(=O)Nc1ccsc1C(=O)O` [Example 61, 3-(4-tert-butyl-2-vinylphenylsulfonamido)thiophene-2-carboxylic acid, disodium salt], the IC50 is at most 0.1 µM. The figure for `Cc1cc(C(C)(C)C)cc(C)c1S(=O)(=O)Nc1ccsc1C(=O)O` [Example 62, 3-(4-tert-butyl-2,6-dimethylphenylsulfonamido)thiophene-2-carboxylic acid, disodium salt] is above 0.5 µM; for `COc1cc(S(=O)(=O)Nc2ccsc2C(=O)O)c(Cl)cc1F` [Example 63, 3-(2-chloro-4-fluoro-5-methoxyphenylsulfonamido)thiophene-2-carboxylic acid, disodium salt] it is above 0.5 µM.
